Data reported in paper PMC8472793 (Microorganisms, 2021).
Blank lines part the entries; values can stand above or below the compound they belong to.

Key:
[1] = molecular target: T1, Pro1 (γ-glutamyl kinase, GK) (Saccharomyces cerevisiae, UniProt P32264); test: PK/LDH-coupled ADP production, NADH oxidation at […] nm; type: biochemical; settings: 10 mM MgCl2, 100 mM HEPES-NaOH pH 7.4, 30 °C, no proline
T1 sequence (P32264 1-428): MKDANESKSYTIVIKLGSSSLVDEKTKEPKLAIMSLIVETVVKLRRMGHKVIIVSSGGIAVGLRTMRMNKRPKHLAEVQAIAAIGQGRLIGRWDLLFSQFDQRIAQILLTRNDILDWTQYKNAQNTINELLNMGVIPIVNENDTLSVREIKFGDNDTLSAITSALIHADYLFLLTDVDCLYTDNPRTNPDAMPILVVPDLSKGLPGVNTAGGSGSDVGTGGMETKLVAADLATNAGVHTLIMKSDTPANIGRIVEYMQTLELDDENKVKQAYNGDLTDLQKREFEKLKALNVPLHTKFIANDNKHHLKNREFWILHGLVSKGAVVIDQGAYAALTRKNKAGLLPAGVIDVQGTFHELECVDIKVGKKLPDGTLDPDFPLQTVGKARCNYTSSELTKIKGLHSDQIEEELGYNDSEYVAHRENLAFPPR

[2] = molecular target: Pro1 (γ-glutamyl kinase, GK) (Saccharomyces cerevisiae, UniProt P32264, D143A); test: biochemical; settings: read-out: relative activity at 500 mM proline
[3] = molecular target: Pro1 (γ-glutamyl kinase, GK) (Saccharomyces cerevisiae, UniProt P32264, I150T); test: biochemical; settings: read-out: relative activity at 500 mM proline
[4] = molecular target: Pro1 (γ-glutamyl kinase, GK) (Saccharomyces cerevisiae, UniProt P32264, Q79H); test: biochemical; settings: read-out: relative activity at 500 mM proline
Chain of Pro1 (γ-glutamyl kinase, GK) (Saccharomyces cerevisiae, UniProt P32264, Q79H) (P32264 whole entry Q79H): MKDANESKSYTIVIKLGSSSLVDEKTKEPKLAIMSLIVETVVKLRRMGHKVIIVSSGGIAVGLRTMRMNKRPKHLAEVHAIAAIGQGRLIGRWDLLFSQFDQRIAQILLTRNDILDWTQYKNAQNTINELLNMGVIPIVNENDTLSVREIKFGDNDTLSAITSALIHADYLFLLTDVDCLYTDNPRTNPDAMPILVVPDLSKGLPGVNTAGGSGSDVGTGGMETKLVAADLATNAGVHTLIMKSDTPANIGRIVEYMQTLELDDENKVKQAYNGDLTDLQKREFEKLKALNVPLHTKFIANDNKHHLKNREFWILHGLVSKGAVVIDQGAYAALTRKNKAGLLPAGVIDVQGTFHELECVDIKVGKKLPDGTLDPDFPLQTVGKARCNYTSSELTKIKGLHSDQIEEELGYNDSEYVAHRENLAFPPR

Chain of Pro1 (γ-glutamyl kinase, GK) (Saccharomyces cerevisiae, UniProt P32264, D143A) (P32264 whole entry D143A): as the sequence (P32264 whole entry Q79H) above, with H79Q, D143A counted along it
Chain of Pro1 (γ-glutamyl kinase, GK) (Saccharomyces cerevisiae, UniProt P32264, I150T) (P32264 whole entry I150T): as the sequence (P32264 whole entry Q79H) above, with H79Q, I150T counted along it

Compound: Nc1ncnc2c1ncn2[C@@H]1O[C@H](COP(=O)(O)OP(=O)(O)OP(=O)(O)O)[C@@H](O)[C@H]1O [ATP]
PK/LDH-coupled ADP production, NADH oxidation at 340 nm ([1]; 400 mM sodium glutamate, ATP 5 mM): GK activity was measured by the production of ADP in an enzyme-coupled system

Compound: N[C@@H](CCC(=O)O)C(=O)O [sodium glutamate]
PK/LDH-coupled ADP production, NADH oxidation at 340 nm ([1]; 5 mM ATP, glutamate 400 mM): sodium glutamate was added to initiate the enzymatic reaction

activity at 500000 µM [2]: ~95% | activity at 500000 µM [3]: 50% | activity at 500000 µM [4]: ~96%
Compound: O=C(O)[C@@H]1CCCN1 [proline]
